Data set [1] deals with T1, OAT1 (Homo sapiens, UniProt Q4U2R8).
T1 construct: expressed in transfected cells; host or cells: HEK293 (lentiviral transduction; cDNA synthesised by GenScript)
Description: Uptake inhibition assay, OAT1-overexpressing HEK293 cells. It is filed as cell-based. The note with it: at 100 µM. The protocol: (§1) The human embryonic kidney 293 (HEK293) cell line was purchased from Invitrogen/ThermoFisher (Waltham, MA, USA). Madin–Darby canine kidney II (MDCKII) wild type cells were obtained from the European Collection of Authenticated Cell Cultures (ECACC catalog no. 00062107). […]
(§2) Plated cells were preincubated with a transport buffer (HBSS) containing 30 or 150 µg/mL of UT extract or 100 µM of isopteropodine, mitraphylline, or uncarine D for 15 min at an appropriate temperature. […] For radiolabeled substrates, accumulation was measured by liquid scintillation counting (MicroBeta Scintillation Counter, PerkinElmer).
(§3) The transporter-mediated uptake and ATP-dependent transport were determined by subtracting the activity of the control cell/transporter abundant-membrane in the presence of AMP from the activity of the transporter-overexpressing cell/transporter-abundant membrane in the presence of ATP. The relative transporter-specific accumulation was expressed as the percent of DMSO activity. […] Confidence intervals (CIs) of 95% were also determined. […]

Data set [2] concerns the target T2, ENT4 (Homo sapiens, UniProt Q7RTT9).
T2 construct: expressed in transfected cells; host or cells: HEK293 (lentiviral transduction; cDNA synthesised by GenScript)
Kind of data set: Uptake inhibition assay, ENT4-overexpressing HEK293 cells. It is filed as cell-based. The settings on record: 100 µM alkaloid. The protocol: as §1, §2, §3

The target in data set [3] is T3, SGLT2 (Homo sapiens, UniProt P31639).
T3 construct: expressed in transfected cells; host or cells: HEK293 (lentiviral transduction; cDNA synthesised by GenScript)
Kind of data set: Uptake inhibition assay, SGLT2-overexpressing HEK293 cells. It is filed as cell-based. The procedure: as §1, §2, §3

In data set [4] the target is T4, OATP1A2 (Homo sapiens, UniProt P46721).
T4 construct: expressed in transfected cells; host or cells: HEK293 (lentiviral transduction; cDNA synthesised by GenScript)
Kind of data set: Uptake inhibition assay, OATP1A2-overexpressing HEK293 cells. It is filed as cell-based. The note with it: oxindole alkaloids; substrate E3S; read-out: IC50 (95% CI of IC50). The protocol: as §1, §2, §3

For data set [5], the target named is T5, OCT2 (Homo sapiens, UniProt O15244).
T5 construct: expressed in transfected cells; host or cells: HEK293 (lentiviral transduction; cDNA synthesised by GenScript)
Description: Uptake inhibition assay, OCT2-overexpressing HEK293 cells. It is filed as cell-based. The note with it: oxindole alkaloids; substrate metformin; read-out: IC50 (95% CI of IC50). The protocol:
as §1, §2, §3

Data set [6] has as its target T6, ENT1 (Homo sapiens, UniProt Q99808).
T6 construct: expressed in transfected cells; host or cells: MDCKII (lentiviral transduction; cDNA synthesised by GenScript)
T6 sequence (Q99808 1-456): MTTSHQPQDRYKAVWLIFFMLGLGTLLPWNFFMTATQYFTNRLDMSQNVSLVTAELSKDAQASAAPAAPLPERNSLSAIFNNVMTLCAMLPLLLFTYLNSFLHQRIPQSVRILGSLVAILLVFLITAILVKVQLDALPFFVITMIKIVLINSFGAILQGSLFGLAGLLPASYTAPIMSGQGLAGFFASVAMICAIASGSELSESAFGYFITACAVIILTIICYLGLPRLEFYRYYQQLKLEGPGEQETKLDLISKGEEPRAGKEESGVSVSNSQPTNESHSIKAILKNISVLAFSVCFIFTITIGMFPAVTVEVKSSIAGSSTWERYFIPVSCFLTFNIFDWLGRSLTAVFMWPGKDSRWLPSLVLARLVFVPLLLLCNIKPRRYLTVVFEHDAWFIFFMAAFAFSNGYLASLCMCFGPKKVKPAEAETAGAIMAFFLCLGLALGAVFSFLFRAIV
Description: Uptake inhibition assay, ENT1-overexpressing MDCKII cells. It is filed as cell-based. The note with it: for IC50: oxindole alkaloids, substrate uridine, read-out: IC50 (95% CI of IC50).
Source text: The human embryonic kidney 293 (HEK293) cell line was purchased from Invitrogen/ThermoFisher (Waltham, MA, USA). Madin–Darby canine kidney II (MDCKII) wild type cells were obtained from the European Collection of Authenticated Cell Cultures (ECACC catalog no. 00062107). HEK293 cells overexpressing the human uptake OATP1B1 (NCBI Reference Sequence: NM_006446.4), OATP1B3 (NM_019844), OATP2B1 (NM_007256), OATP1A2 (NM_134431), OAT1-3 (BC033682.1; NM_006672.3; BC022387), OCT1-3 (BC126364.1; NM_003058; NM_021977), OCTN1 (NM_003059.3), NTCP (NM_003049.3), MATE1 (NM_018242.3), MATE2K (NM_001099646.2), ENT4 (NM_001040661.1), SGLT2 (AJ133127.1), ASCT1/2 (NM_003038.5; NM_005628.3), LAT1/2 (NM_003486.6; NM_012244.4), and THTR1/2 (NM_006996; NM_025243) and mock and human efflux BCRP (NM_004827.2), BSEP (NM_003742.2), MDR1 (NM_000927.4), and MRP1-5 (NM_004996; NM_000392.4; BC137347.1; NM_005845.4; NM_005688.2) transporters as well as MDCKII overexpressing human ENT1/2 (NM_001078177; NM_001532.2) and URAT1 (BC053348) transporters were created by lentiviral transduction. The cDNA encoding respective transporters were synthetized and cloned by GenScript (Piscataway, NJ, USA). […]
as §2, §3

Data set [7] has as its system MRPs. The settings on record: cited from earlier work.
The target in data set [8] is T7, OCTN1 (Homo sapiens, UniProt Q9H015).
T7 construct: expressed in transfected cells; host or cells: HEK293 (lentiviral transduction; cDNA synthesised by GenScript)
Description: Uptake inhibition assay, OCTN1-overexpressing HEK293 cells. Type of data set: cell-based. The settings on record: in the presence of the alkaloid (100 µM, Figure 3). The protocol:
as §1, §2, §3

Like-named read-outs stand apart in the source and are kept apart here.

T3 sequence (P31639 whole entry): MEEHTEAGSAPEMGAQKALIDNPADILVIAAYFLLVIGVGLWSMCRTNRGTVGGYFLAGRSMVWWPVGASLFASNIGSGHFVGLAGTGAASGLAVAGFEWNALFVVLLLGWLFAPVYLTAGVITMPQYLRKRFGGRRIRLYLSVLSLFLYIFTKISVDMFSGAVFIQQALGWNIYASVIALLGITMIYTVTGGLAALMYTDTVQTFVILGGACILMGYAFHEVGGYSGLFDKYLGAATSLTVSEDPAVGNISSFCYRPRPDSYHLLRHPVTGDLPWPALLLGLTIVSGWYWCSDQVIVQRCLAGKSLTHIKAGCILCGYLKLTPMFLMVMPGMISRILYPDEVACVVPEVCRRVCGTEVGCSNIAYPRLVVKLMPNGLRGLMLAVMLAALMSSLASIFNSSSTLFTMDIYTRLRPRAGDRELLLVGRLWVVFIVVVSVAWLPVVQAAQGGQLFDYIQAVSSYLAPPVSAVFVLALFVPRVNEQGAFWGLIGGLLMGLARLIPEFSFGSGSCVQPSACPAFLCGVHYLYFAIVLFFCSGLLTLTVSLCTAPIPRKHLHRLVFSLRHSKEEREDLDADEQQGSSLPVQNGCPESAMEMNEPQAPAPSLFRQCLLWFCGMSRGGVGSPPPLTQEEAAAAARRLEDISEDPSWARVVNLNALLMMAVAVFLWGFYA
T4 sequence (P46721 whole entry): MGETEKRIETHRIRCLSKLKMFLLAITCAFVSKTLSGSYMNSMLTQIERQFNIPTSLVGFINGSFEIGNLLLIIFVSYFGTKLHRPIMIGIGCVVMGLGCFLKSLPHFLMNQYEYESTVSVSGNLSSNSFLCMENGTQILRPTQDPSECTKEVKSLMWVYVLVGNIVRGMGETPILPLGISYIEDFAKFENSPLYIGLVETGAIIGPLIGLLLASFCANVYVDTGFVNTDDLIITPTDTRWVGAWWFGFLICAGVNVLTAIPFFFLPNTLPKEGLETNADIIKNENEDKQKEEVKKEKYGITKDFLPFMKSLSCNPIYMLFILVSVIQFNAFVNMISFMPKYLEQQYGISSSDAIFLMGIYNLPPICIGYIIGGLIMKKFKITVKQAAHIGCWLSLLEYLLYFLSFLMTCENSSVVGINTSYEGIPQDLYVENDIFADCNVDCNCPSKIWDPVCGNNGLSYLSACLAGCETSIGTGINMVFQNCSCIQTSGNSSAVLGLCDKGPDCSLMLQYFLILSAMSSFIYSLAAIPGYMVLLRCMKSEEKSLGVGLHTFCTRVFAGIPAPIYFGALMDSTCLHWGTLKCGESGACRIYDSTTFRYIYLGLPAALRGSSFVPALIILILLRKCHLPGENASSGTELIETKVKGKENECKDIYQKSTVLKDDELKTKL
T7 sequence (Q9H015 whole entry): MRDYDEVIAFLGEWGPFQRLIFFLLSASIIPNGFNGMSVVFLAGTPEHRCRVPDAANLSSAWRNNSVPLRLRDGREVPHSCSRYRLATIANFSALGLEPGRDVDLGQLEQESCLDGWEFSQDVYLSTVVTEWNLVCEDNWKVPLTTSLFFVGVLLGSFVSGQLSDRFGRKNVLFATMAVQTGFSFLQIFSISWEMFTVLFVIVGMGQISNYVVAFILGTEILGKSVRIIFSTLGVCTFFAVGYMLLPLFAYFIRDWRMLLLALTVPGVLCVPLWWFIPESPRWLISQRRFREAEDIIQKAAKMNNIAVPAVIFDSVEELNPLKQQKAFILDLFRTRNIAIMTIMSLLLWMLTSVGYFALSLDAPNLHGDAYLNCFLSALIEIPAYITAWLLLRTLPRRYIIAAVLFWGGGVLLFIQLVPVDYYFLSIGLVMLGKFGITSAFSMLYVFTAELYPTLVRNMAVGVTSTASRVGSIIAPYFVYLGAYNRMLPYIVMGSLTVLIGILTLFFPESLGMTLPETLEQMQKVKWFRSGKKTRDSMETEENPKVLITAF
T2 sequence (Q7RTT9 whole entry): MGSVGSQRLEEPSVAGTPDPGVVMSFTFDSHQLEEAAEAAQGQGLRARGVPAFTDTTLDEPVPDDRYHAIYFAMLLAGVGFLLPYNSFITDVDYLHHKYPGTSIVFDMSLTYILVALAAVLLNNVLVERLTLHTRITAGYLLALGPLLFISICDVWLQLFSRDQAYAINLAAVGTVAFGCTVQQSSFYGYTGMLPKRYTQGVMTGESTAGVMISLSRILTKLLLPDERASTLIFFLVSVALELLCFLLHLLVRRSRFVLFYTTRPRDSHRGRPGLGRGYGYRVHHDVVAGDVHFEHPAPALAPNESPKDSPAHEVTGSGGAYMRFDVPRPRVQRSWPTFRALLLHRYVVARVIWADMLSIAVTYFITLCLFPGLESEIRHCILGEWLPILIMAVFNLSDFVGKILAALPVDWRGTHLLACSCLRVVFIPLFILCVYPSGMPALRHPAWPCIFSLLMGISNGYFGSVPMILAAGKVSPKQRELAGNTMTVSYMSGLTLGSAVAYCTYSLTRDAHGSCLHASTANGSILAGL
T5 sequence (O15244 whole entry): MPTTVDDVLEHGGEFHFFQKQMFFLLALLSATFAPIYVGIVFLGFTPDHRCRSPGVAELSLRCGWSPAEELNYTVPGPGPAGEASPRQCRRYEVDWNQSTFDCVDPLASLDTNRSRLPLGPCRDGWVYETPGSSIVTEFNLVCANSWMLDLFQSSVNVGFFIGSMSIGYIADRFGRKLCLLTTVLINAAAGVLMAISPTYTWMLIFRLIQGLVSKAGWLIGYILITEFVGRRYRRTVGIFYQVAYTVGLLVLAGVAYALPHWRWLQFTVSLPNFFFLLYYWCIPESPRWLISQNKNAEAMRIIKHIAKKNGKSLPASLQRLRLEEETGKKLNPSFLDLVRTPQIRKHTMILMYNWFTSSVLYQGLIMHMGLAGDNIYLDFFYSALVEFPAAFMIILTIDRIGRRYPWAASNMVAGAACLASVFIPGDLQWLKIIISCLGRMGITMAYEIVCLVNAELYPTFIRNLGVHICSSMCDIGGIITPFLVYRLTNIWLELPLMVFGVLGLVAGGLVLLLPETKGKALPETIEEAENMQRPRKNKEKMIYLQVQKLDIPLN
T1 sequence (Q4U2R8 whole entry): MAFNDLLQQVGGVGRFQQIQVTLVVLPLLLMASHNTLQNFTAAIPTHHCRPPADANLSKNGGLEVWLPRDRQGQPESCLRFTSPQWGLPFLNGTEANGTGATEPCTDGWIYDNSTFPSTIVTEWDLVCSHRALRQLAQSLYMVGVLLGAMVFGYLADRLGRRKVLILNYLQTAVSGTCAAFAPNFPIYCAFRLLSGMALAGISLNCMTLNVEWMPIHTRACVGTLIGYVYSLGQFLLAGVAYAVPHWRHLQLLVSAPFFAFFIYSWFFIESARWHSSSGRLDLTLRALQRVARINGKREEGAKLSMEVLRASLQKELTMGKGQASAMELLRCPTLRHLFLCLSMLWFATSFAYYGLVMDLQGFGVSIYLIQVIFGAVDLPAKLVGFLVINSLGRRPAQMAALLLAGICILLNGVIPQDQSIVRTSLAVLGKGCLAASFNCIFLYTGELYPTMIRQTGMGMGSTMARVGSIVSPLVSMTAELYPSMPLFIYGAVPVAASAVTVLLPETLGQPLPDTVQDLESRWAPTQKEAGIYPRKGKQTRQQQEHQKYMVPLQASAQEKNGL

Consider `COC(=O)C1=CO[C@@H](C)[C@@H]2CN3CC[C@@]4(C(=O)Nc5ccccc54)[C@@H]3C[C@H]12` [isopteropodine], for which the “decrease of transporter-mediated transport” value in data set [1] and in data set [3] (at 100 µM) was “around 50%” in each case. In addition, the “inhibitory effect on transporter-specific transport” value in data set [2] is recorded as “significantly inhibited”. For the same compound, the IC50 in data set [3] (oxindole alkaloids, substrate AMG, read-out: IC50 (95% CI of IC50)) amounted to 72.7 µM; in data set [4], 36.1 µM; in data set [5], 16.1 µM.

For `COC(=O)C1=CO[C@@H](C)[C@H]2CN3CC[C@]4(C(=O)Nc5ccccc54)[C@@H]3C[C@H]12` [mitraphylline], the transporter-mediated substrate accumulation result in data set [6] (in the presence of the alkaloid (100 µM, Figure 3)) is “below 50%”; in data set [8], “below 50%”. The IC50 in data set [6] (listed as Mitraphylline) and in data set [6] was 49.6 µM in each case. In addition, in data set [7], the “interaction with MRPs” value is listed as “not to interact with MRPs”.
